Source: ChEMBL document CHEMBL1201862, “PubChem BioAssay data set” (2004)
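Each compound was tested at five concentrations against cells in 96-well plates for 48 hours. At the GI50, growth is halved.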 The source made the active and inactive calls. Rule as the data show it: active = GI50 up to about 1.1 µM and inactive = higher.

Legend:
Experiment in all cases: growth of human tumour cells (NCI), 48 h
786-0 = test system: 786-0
A549 = test system: A549
ACHN = test system: ACHN
CCRF-CEM = test system: CCRF-CEM
COLO 205 = test system: COLO 205
DLD-1 = test system: DLD-1
DMS-114 = test system: DMS-114
DMS-273 = test system: DMS-273
EKVX = test system: EKVX
HCC 2998 = test system: HCC 2998
HCT-116 = test system: HCT-116
HCT-15 = test system: HCT-15
HL-60 = test system: HL-60
HOP-18 = test system: HOP-18
HOP-62 = test system: HOP-62
HOP-92 = test system: HOP-92
HT-29 = test system: HT-29
IGROV-1 = test system: IGROV-1
K562 = test system: K562
KM-20L2 = test system: KM-20L2
KM12 = test system: KM12
LOX IMVI = test system: LOX IMVI
M14 = test system: M14
M19-MEL = test system: M19-MEL
MOLT-4 = test system: MOLT-4
Malme-3M = test system: Malme-3M
NCI-H226 = test system: NCI-H226
NCI-H23 = test system: NCI-H23
NCI-H460 = test system: NCI-H460
NCI-H522 = test system: NCI-H522
OVCAR-3 = test system: OVCAR-3
OVCAR-4 = test system: OVCAR-4
OVCAR-5 = test system: OVCAR-5
OVCAR-8 = test system: OVCAR-8
RPMI-8226 = test system: RPMI-8226
RXF 393 = test system: RXF 393
RXF 631 = test system: RXF 631
SF-295 = test system: SF-295
SF-539 = test system: SF-539
SK-MEL-28 = test system: SK-MEL-28
SK-MEL-2 = test system: SK-MEL-2
SK-MEL-5 = test system: SK-MEL-5
SK-OV-3 = test system: SK-OV-3
SN12C = test system: SN12C
SNB-19 = test system: SNB-19
SNB-75 = test system: SNB-75
SR = test system: SR
SW-620 = test system: SW-620
TK-10 = test system: TK-10
U-251 = test system: U-251
UACC-257 = test system: UACC-257
UACC-62 = test system: UACC-62
UO-31 = test system: UO-31
XF498 = test system: XF498
CAKI-1 = test system: CAKI-1
LXFL 529 = test system: LXFL 529
SF-268 = test system: SF-268

C=CCCCN1CCCCC1=S
GI50 (786-0): > 100 µM (inactive)
GI50 (A549): > 100 µM (inactive)
GI50 (ACHN): > 100 µM (inactive)
GI50 (CCRF-CEM): > 100 µM (inactive)
GI50 (COLO 205): > 100 µM (inactive)
GI50 (DLD-1): > 100 µM (inactive)
GI50 (DMS-114): > 100 µM (inactive)
GI50 (DMS-273): > 100 µM (inactive)
GI50 (EKVX): > 100 µM (inactive)
GI50 (HCC 2998): > 100 µM (inactive)
GI50 (HCT-116): > 100 µM (inactive)
GI50 (HCT-15): > 100 µM
GI50 (HL-60): > 100 µM (inactive)
GI50 (HOP-18): > 100 µM (inactive)
GI50 (HOP-62): > 100 µM (inactive)
GI50 (HOP-92): > 100 µM (inactive)
GI50 (HT-29): > 100 µM (inactive)
GI50 (IGROV-1): > 100 µM (inactive)
GI50 (K562): > 100 µM (inactive)
GI50 (KM-20L2): > 100 µM (inactive)
GI50 (KM12): > 100 µM (inactive)
GI50 (LOX IMVI): > 100 µM (inactive)
GI50 (M14): > 100 µM (inactive)
GI50 (M19-MEL): > 100 µM (inactive)
GI50 (MOLT-4): > 100 µM (inactive)
GI50 (Malme-3M): > 100 µM (inactive)
GI50 (NCI-H226): > 100 µM (inactive)
GI50 (NCI-H23): > 100 µM (inactive)
GI50 (NCI-H460): > 100 µM (inactive)
GI50 (NCI-H522): > 100 µM (inactive)
GI50 (OVCAR-3): > 100 µM (inactive)
GI50 (OVCAR-4): > 100 µM (inactive)
GI50 (OVCAR-5): > 100 µM (inactive)
GI50 (OVCAR-8): > 100 µM (inactive)
GI50 (RPMI-8226): > 100 µM (inactive)
GI50 (RXF 393): > 100 µM (inactive)
GI50 (RXF 631): > 100 µM (inactive)
GI50 (SF-295): > 100 µM (inactive)
GI50 (SF-539): > 100 µM (inactive)
GI50 (SK-MEL-28): > 100 µM (inactive)
GI50 (SK-MEL-2): > 100 µM (inactive)
GI50 (SK-MEL-5): > 100 µM (inactive)
GI50 (SK-OV-3): 63.4 µM (inactive)
GI50 (SN12C): > 100 µM (inactive)
GI50 (SNB-19): > 100 µM (inactive)
GI50 (SNB-75): 36.5 µM (inactive)
GI50 (SR): > 100 µM (inactive)
GI50 (SW-620): > 100 µM (inactive)
GI50 (TK-10): > 100 µM (inactive)
GI50 (U-251): > 100 µM (inactive)
GI50 (UACC-257): > 100 µM (inactive)
GI50 (UACC-62): > 100 µM (inactive)
GI50 (UO-31): > 100 µM (inactive)
GI50 (XF498): > 100 µM (inactive)

CC(O)c1ccc[n+](Cc2ccccc2)c1 (configuration not stated)
GI50 (786-0): > 400 µM (inactive)
GI50 (A549): > 400 µM (inactive)
GI50 (ACHN): > 400 µM (inactive)
GI50 (CAKI-1): > 400 µM (inactive)
GI50 (CCRF-CEM): > 400 µM (inactive)
GI50 (COLO 205): > 400 µM (inactive)
GI50 (DLD-1): > 400 µM (inactive)
GI50 (DMS-114): > 400 µM (inactive)
GI50 (DMS-273): > 400 µM (inactive)
GI50 (EKVX): > 400 µM (inactive)
GI50 (HCC 2998): > 400 µM (inactive)
GI50 (HCT-116): > 400 µM (inactive)
GI50 (HCT-15): > 400 µM
GI50 (HL-60): > 400 µM (inactive)
GI50 (HOP-18): > 400 µM (inactive)
GI50 (HOP-62): > 400 µM (inactive)
GI50 (HOP-92): > 400 µM (inactive)
GI50 (HT-29): > 400 µM (inactive)
GI50 (IGROV-1): > 400 µM (inactive)
GI50 (K562): > 400 µM (inactive)
GI50 (KM-20L2): > 400 µM (inactive)
GI50 (KM12): > 400 µM (inactive)
GI50 (LOX IMVI): > 400 µM (inactive)
GI50 (LXFL 529): > 400 µM (inactive)
GI50 (M19-MEL): > 400 µM (inactive)
GI50 (MOLT-4): > 400 µM (inactive)
GI50 (Malme-3M): > 400 µM (inactive)
GI50 (NCI-H226): > 400 µM (inactive)
GI50 (NCI-H23): > 400 µM (inactive)
GI50 (NCI-H460): > 400 µM (inactive)
GI50 (NCI-H522): > 400 µM (inactive)
GI50 (OVCAR-3): > 400 µM (inactive)
GI50 (OVCAR-5): > 400 µM (inactive)
GI50 (OVCAR-8): > 400 µM (inactive)
GI50 (RPMI-8226): > 400 µM (inactive)
GI50 (RXF 393): > 400 µM (inactive)
GI50 (RXF 631): > 400 µM (inactive)
GI50 (SF-268): > 400 µM (inactive)
GI50 (SF-295): > 400 µM (inactive)
GI50 (SF-539): > 400 µM (inactive)
GI50 (SK-MEL-28): > 400 µM (inactive)
GI50 (SK-MEL-2): > 400 µM (inactive)
GI50 (SK-MEL-5): > 400 µM (inactive)
GI50 (SK-OV-3): > 400 µM (inactive)
GI50 (SN12C): > 400 µM (inactive)
GI50 (SNB-19): > 400 µM (inactive)
GI50 (SR): > 400 µM (inactive)
GI50 (SW-620): > 400 µM (inactive)
GI50 (TK-10): > 400 µM (inactive)
GI50 (U-251): > 400 µM (inactive)
GI50 (UACC-257): > 400 µM (inactive)
GI50 (UACC-62): > 400 µM (inactive)
GI50 (XF498): > 400 µM (inactive)
